Test results: article PMC12381025 (Scientific Reports, 2025)

Experiments:
α-glucosidase = experiment: α-Glucosidase inhibition assay; format: biochemical; settings: versus standard inhibitor acarbose
α-amylase = experiment: α-Amylase inhibition assay; format: biochemical; settings: versus standard inhibitor acarbose

O=C(CCc1nc2ccccc2[nH]1)N/N=C/c1cc2ccccc2nc1SCC(=O)Nc1ccc(F)cc1 [Compound 12n, (E)-2-((3-((2-(3-(1 H-benzo[d]imidazol-2-yl)propanoyl)hydrazineylidene)methyl)quinolin-2-yl)thio)-N-(4-fluorophenyl)acetamide]
fold more potent than acarbose against α-glucosidase (α-glucosidase): 5 fold | fold more potent than acarbose against α-amylase (α-amylase): 23.8 fold
